Assay: in vivo
Settings: mouse, po

## Cc1c(-c2ccc(O)cc2)n(Cc2ccc(OCCN3CCCCC3)cc2)c2ccc(O)cc12 [Pipendoxifene, 2-(4-hydroxyphenyl)-3-methyl-1-[[4-(2-piperidin-1-ylethoxy)phenyl]methyl]indol-5-ol]
  NOAEL: ≥ 750 mg/kg/day

— EP4799624A2 (priority 2021, dated 2023)
